Laboratory results from PMC7582905, “Effect of Disulfide Cyclization of Ultrashort Cationic Lipopeptides on Antimicrobial Activity and Cytotoxicity” (International Journal of Molecular Sciences, 2020).
In brackets after ≈: the same amount, converted by molar mass. Where a SMILES comes first, the peptide text is derived from it. Bridges are numbered along the chain shown (N, C = ends). The star is where a group is joined. Palmitoyl = CCCCCCCCCCCCCCCC(=O)*

Assays:
Type in all cases: cell-based
[1] = system: Pseudomonas aeruginosa ATCC 9027; conditions: ATCC 9027, 24 h
Procedure, shortened: (§1)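 24 h biofilm (37 °C; 5.0 × 10^5 CFU/mL bacteria, 2.0 × 10^5 CFU/mL fungi) → PBS pH 7.4 wash ×3 → cpd 0.5–256 μg/mL, 24 h, 37 °C → resazurin 1 h, A570/A600. Cutoff ≤10% reduction.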

[2] = system: Staphylococcus epidermidis ATCC 14990; conditions: ATCC 14990, 24 h
Procedure, shortened: as §1

[3] = system: Escherichia coli ATCC 25922; conditions: ATCC 25922, 24 h
Procedure, shortened: as §1

[4] = system: Candida albicans ATCC 10231; conditions: ATCC 10231, 24 h
Procedure, shortened: as §1

[5] = system: Candida lipolytica PCM 2680-FY; conditions: 24 h
Experimental: (§2) The Staphylococcus aureus ATCC 25923, Staphylococcus epidermidis ATCC 14990, Escherichia coli ATCC 25922, Pseudomonas aeruginosa ATCC 9027, Candida albicans ATCC 10231, Candida glabrata ATCC 15126, Candida lipolytica PCM 2680-FY, and Candida tropicalis PCM 2709-FY strains were acquired from the Polish Collection of Microorganisms (PCM, Polish Academy of Sciences, Wrocław, Poland) and from the American Type Culture Collection (ATCC). All the strains were stored at −80 °C in Roti-Store cryo vials and before the tests were transferred into fresh Mueller–Hinton broth (MHB, Biocorp, Warsaw, Poland) for bacteria or RPMI-1640 (Sigma-Aldrich, Steinheim, Germany) for fungi and incubated for 24 h at 37 °C. Then, the cultures were seeded on Mueller–Hinton agar (BioMaxima, Lublin, Poland) or Sabouraud dextrose agar (SDA, BioMaxima, Lublin, Poland) plates, respectively, and incubated as just mentioned. These agar cultures were used for further microbiological assays. Cell densities for all assays were adjusted spectrophotometrically (Multiskan GO Microplate Spectrophotometer, Thermo Fisher Scientific, Vantaa, Finland) at 600 and 660 nm for bacteria and fungi, respectively.
(§3) The assay was performed to evaluate the effect of the lipopeptides in preventing biofilm formation. The preparation of inoculums was followed by a ca. 500-fold dilution of the 24 h cultures of microorganisms. Briefly, 50 μL of the compounds in the concentration range, diluted in appropriate medium, were prepared on 96-well polystyrene flat-bottom plates. Subsequently, the 50 μL of the bacterial/fungal inoculums were added to reach the same microbial density as that in the MBEC assay. After 24 h of incubation at 37 °C, the wells were rinsed three times with PBS and the fresh media with resazurin (4 g/L) were added. The MBICs were read after 1 h. All experiments were conducted in triplicate.

[6] = system: Staphylococcus aureus ATCC 25923; conditions: ATCC 25923, 24 h
Experimental: as §2, §3

[7] = system: Pseudomonas aeruginosa ATCC 9027; conditions: ATCC 9027, 24 h; remark: listed apart in the source
Experimental: as §2, §3

[8] = system: Staphylococcus epidermidis ATCC 14990; conditions: ATCC 14990, 24 h; remark: listed apart in the source
Experimental: as §2, §3

[9] = system: Candida tropicalis PCM 2709-FY; conditions: PCM 2709-FY, 24 h
Experimental: as §2, §3

[10] = system: Escherichia coli ATCC 25922; conditions: ATCC 25922, 24 h; remark: listed apart in the source
Experimental: as §2, §3

[11] = system: Candida glabrata ATCC 15126; conditions: ATCC 15126, 24 h
Experimental: as §2, §3

[12] = system: Candida albicans ATCC 10231; conditions: ATCC 10231, 24 h; remark: listed apart in the source
Experimental: as §2, §3

[13] = system: human red blood cells (hRBCs); test: Hemolysis assay; conditions: peptide concentration causing 50% hemolysis; 4% (v/v) hRBCs in PBS, 1 h, 37 °C, absorbance 540 nm, triplicate
Experimental: The hemolysis assay was performed by using the method reported previously. Fresh human red blood cells (hRBCs) with anticoagulant (EDTA) were rinsed three times with a PBS by centrifugation at 800× g for 10 min and diluted with PBS. The lipopeptides were serially diluted on a 96-well microtiter polystyrene plate and hRBCs were added up to a final volume of 100 μL. The peptide concentration ranged between 0.5 and 256 μg/mL and the final hRBCs concentration was 4% (v/v). Controls for zero hemolysis (blank) and 100% hemolysis consisted of hRBCs suspended in PBS and 1% of Triton-X 100, respectively. The plate was incubated for 1 h at 37 °C and then centrifuged (800× g, 10 min, 4 °C). Subsequently, the supernatant was […] to new microtiter plates and the absorbance at 540 nm was measured. All experiments were conducted in triplicate. HC50 was calculated using an ic50.tk tool. Protocol of the study received approval from the local Bioethics Committee at the Medical University of Gdańsk (NKBBN/262/2019, approval date: 10 June 2019).

[14] = system: Pseudomonas aeruginosa ATCC 9027; conditions: ATCC 9027, 18 h
Experimental: as §2
(§4) The MICs were determined by broth microdilution method according to the Clinical and Laboratory Standard Institute guidelines For this purpose, initial inoculums of bacteria (5 × 10^5 CFU/mL) in MHB and yeasts (2 × 10^3 CFU/mL) in RPMI-1640 with 2% D-glucose were exposed to the ranging concentration of lipopeptides (0.5–256 μg/mL) and incubated at 37 °C for 18 h and 24 h, respectively. The experiments were conducted on 96-well microtiter polystyrene plates. The growth was assessed visually after incubation and the MIC was assumed as the lowest peptide concentration at which a noticeable growth of microorganisms was inhibited. All experiments were conducted in triplicate.

[15] = system: Candida albicans ATCC 10231; conditions: ATCC 10231, 24 h; remark: listed apart in the source
Experimental: as §2, §4

## CCCCCCCCCCCCCCCC(=O)N[C@H]1CSSC[C@@H](C(N)=O)NC(=O)[C@H](CCCCN)NC(=O)[C@H](CCCCN)NC(=O)[C@H](CCCNC(=N)N)NC(=O)[C@H](CCCCN)NC1=O [C4, C16-CKRKKC-NH2] (Palmitoyl-CKRKKC-NH2; disulfide 1-6)
[1]
  MBEC P. aeruginosa: >256 µg/mL
[2]
  MBEC S. epidermidis: 32 µg/mL
[3]
  MBEC E. coli: 64 µg/mL
[4]
  MBEC C. albicans: 32 µg/mL
[5]
  MBIC C. lipolytica: 4 µg/mL
[6]
  MBIC S. aureus: 16 µg/mL
[7]
  MBIC P. aeruginosa: 32 µg/mL
[8]
  MBIC S. epidermidis: 8 µg/mL
[9]
  MBIC C. tropicalis: 4 µg/mL
[10]
  MBIC E. coli: 32 µg/mL
[11]
  MBIC C. glabrata: 16 µg/mL
[12]
  MBIC C. albicans: 8 µg/mL
[13]
  HC50: 122.4 ± 16.5 µg/mL
[14]
  MIC P. aeruginosa: 256 µg/mL (≈ 256 µM)
[15]
  MIC C. albicans: 2 µg/mL (≈ 2 µM)
